Measurements taken from patent US4189607A, “Anilionotropone derivatives” (priority 1979, dated 1980).
Counter-ions that a name gives are not always drawn.

Assays:
gastric lesions = experiment: Gastric ulcerogenicity (gastric lesions); assay type: in vivo, Male Wistar strain rats; conditions: p.o., 18 hours fasting prior to autopsy
Excerpt: Experiment 4: Gastric ulcerogenicity […] The gastric lesions induced was expressed as incidence (number of rats with gastric lesions/number of the test rats) and lesion index (sum of areas damaged).

rat paw edema = experiment: Anti-inflammatory activity, carrageenin rat paw edema (Winter et al); assay type: in vivo, Male Wistar strain rats; conditions: p.o., four hours after injection of carrageenin
Procedure: Experiment 1: Anti-inflammatory activity
Anti-inflammatory activity was evaluated by the method of rat paw edema (Winter et al, J. Pharmacol. Exp. Ther., 141, 369 (1963) ). Six male Wistar strain rats were used in each group and the volume of each paw was measured four hours after injection of carrageenin.

acetic acid writhing = experiment: Analgesic activity, acetic acid writhing test (Koster et al); assay type: in vivo, Male ddY strain mice; conditions: p.o.
Excerpt: Experiment 3: Analgesic activity
Male ddY strain mice in groups of ten each were used for evaluation of analgesic activity by the acetic acid writhing test (Koster et al, Federation Proc., 18, 412 (1959). The results are shown in Tables 3 and 4.

[1] = Analgesic activity, method of Randall-Selitto with slight modification; assay type: in vivo, Male Wistar strain rats; conditions: 25 mg/kg orally, vs Cpd. 3 at 100 mg/kg
Procedure: Experiment 2: Analgesic activity
Male Wistar strain rats in groups of six each were used for the evaluation of analgesic activity by the method of Randall-Selitto (Arch. Intern. Pharmacodyn., 111, 409 (1957) ) with slight modification. In a graph where the load was plotted on the ordinate and the time was plotted on the abscissa, the curve obtained when Cpd. 1 was orally administered in a dose of 25 mg/kg was substantially in agreement with the curve obtained when Cpd. 3 was orally administered in a dose of 100 mg/kg. […] 1 was administered in a dose of 50 mg/kg and the Cpd 3 was administered in a dose of 200 mg/kg.

[2] = Table 6, 100 + 200 mg/kg, 200 mg/kg

Structure (SMILES)	Lesion index (sum of areas damaged) (gastric lesions; Table 5, 25 + 50 mg/kg) [mm^2]	Lesion index (sum of areas damaged) (gastric lesions; Table 5, 50 + 100 mg/kg) [mm^2]	Lesion index (sum of areas damaged) (gastric lesions; Table 5, 100 + 200 mg/kg) [mm^2]	Lesion index (sum of areas damaged) (gastric lesions; Table 6, 100 + 200 mg/kg) [mm^2]	Inhibition (%) (rat paw edema; Table 1, 25 mg/kg)	Inhibition (%) (rat paw edema; Table 1, 50 mg/kg)	Inhibition (%) (rat paw edema; Table 1, 100 mg/kg)	Inhibition (%) (rat paw edema; Table 2, 100 mg/kg)	Inhibition (%) (acetic acid writhing; Table 3, 200 mg/kg)	Inhibition (%) (acetic acid writhing; Table 4, 100 mg/kg)	Incidence (number of rats with gastric lesions/number of the test rats) (gastric lesions; [2])	Lesion index (sum of areas damaged) (gastric lesions; [2]) [mm^2]	Inhibition (%) (rat paw edema; Table 2, 100 mg/kg, 100 mg/kg)	Incidence (number of rats with gastric lesions/number of the test rats) (gastric lesions; Table 5, 25 + 50 mg/kg)	Incidence (number of rats with gastric lesions/number of the test rats) (gastric lesions; Table 5, 50 + 100 mg/kg)	Incidence (number of rats with gastric lesions/number of the test rats) (gastric lesions; Table 5, 100 + 200 mg/kg)	Inhibition (%) (acetic acid writhing; Table 3, 100 mg/kg)	Load-time curve compared with Cpd. 3 [1]
CCCCC1C(=O)N(c2ccccc2)N(c2ccccc2)C1=O [Cpd. 3, phenylbutazone, reference compound]	0.02 ± 0.014	1.43 ± 0.43	6.82 ± 1.40	7.70 ±3.23	22.4	34.7	54.5	32.5	18.5	10.7								
CC(C(=O)O)c1cccc(Nc2cccccc2=O)c1 (centres unmarked) [Cpd. 2, 2-[m-(2-troponylamino)phenyl]propionic acid]										31.2	0/6	0	43.0					
CC(C(=O)O)c1cccc(Nc2cccccc2=O)c1 (centres unmarked) [Cpd. 2-Ca salt, calcium 2-[m-(2-troponylamino)phenyl]propionate]										31.2	2/6	0.12 ± 0.10	43.2					
CC(C(=O)O)c1ccc(Nc2cccccc2=O)cc1 (centres unmarked) [Cpd. 1, 2-[p-(2-troponylamino)phenyl]propionic acid]	0	0.02 ± 0.017	0.52 ± 0.17		56.8	50.9	61.0							0/6	1/6	4/6	54.8	substantially in agreement with the curve obtained when Cpd. 3 was orally administered in a dose of 100 mg/kg
